Laboratory results as given in paper PMC10714400, “Antimicrobial Peptide–Peptoid Hybrids with and without Membrane Disruption” (ACS Infectious Diseases, 2023).
In brackets after ≈: the same amount, converted by molar mass. Where two headings read alike, the source gives them in different places. Where a SMILES comes first, the peptide text is derived from it. [ ]: non-standard residue; d: D form. Nleu = CC(C)CNCC(=O)O; Nlys = NCCCCNCC(=O)O

Legend:
[1] = system: P. aeruginosa PA14
In short: (§1)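 MICs were determined by broth microdilution in MH medium, with approximately 5 × 10^5 CFU added per well and plates held at 37 °C for about 18 h without shaking.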

[2] = system: B. cenocepacia; conditions: diluted MH ([…] MH) at pH 8.5 (Table 2 footnote b)
In short: as §1

[3] = system: S. maltophilia; conditions: […] MH at pH 8.5
In short: as §1

[4] = system: S. epidermis; conditions: […] MH at pH 8.5
In short: as §1

[5] = system: S. aureus Newman; conditions: […] MH at pH 8.5
In short: as §1

[6] = Circular dichroism, α-helical content; type: physicochemical; conditions: 0.1 mg/mL; for CD %α with 5 mM DPC: 10 mM phosphate buffer pH 7.4, 5 mM DPC; for CD %α with 20% TFE: 10 mM phosphate buffer pH 7.4, 20% TFE
[7] = system: human red blood cells (hRBC); experiment: Minimum hemolytic concentration (MHC); type: cell-based
Text: We also measured minimal hemolysis concentrations (MHC) on human red blood cells by serial 2-fold dilution as an indication of toxicity against eukaryotic cells (Table 1).

[8] = system: ZEM9A (clinical MDR P. aeruginosa isolate); conditions: […] MH at pH 8.5
In short: as §1

[9] = system: PA14 4.18 (pmrB)
In short: as §1

[10] = system: E. coli W3110
In short: as §1

[11] = system: P. aeruginosa PAO1
In short: as §1

[12] = system: A. baumannii ATCC19606
In short: (§2)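 MTT added (20–30 min, room temperature); MIC read by eye as lowest concentration inhibiting visible growth (yellow). Polymyxin B positive control from 16 μg/mL.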

[13] = system: PA14 2P4 (pmrB)
In short: as §1

[14] = system: ZEM-1A (clinical MDR P. aeruginosa isolate)
In short: as §1

[15] = system: PA14 4.13 (phoQ)
In short: as §1

[16] = system: K. pneumoniae OXA-48; conditions: […] MH at pH 8.5
In short: as §1

[17] = system: S. aureus COL (MRSA)
In short: as §1

[18] = system: K. pneumoniae NCTC418
In short: as §2

[19] = system: E. cloacae; conditions: […] MH at pH 8.5
In short: as §1

[20] = diluted MH ([…] MH) at pH 8.5 (Table 2 footnote b)

Q: Which results are given for `CC(C)CN(CC(N)=O)C(=O)CN(CC(C)C)C(=O)CN(CC(C)C)C(=O)CN(CCCCN)C(=O)CN(CC(C)C)C(=O)CN(CC(C)C)C(=O)CN(CCCCN)C(=O)CN(CC(C)C)C(=O)CN(CC(C)C)C(=O)CN(CCCCN)C(=O)CNCCCCN` [EB11, kkllkllklll] (H-[Nlys][Nlys][Nleu][Nleu][Nlys][Nleu][Nleu][Nlys][Nleu][Nleu][Nleu]-NH2)?
A: MIC P. aeruginosa PA14, […] MH at pH 8.5 ([1]; CSV, […] MH at pH 8.5): 3 ug/mL; MIC P. aeruginosa PA14 ([1]; Table S3, […] MH at pH 8.5, 16-20 hours at 37 °C): 2 to 4 mg/L; MIC P. aeruginosa PA14 [1, 20]: 2 to 4 mg/L; MIC B. cenocepacia [2]: >32 mg/L; MIC S. maltophilia, […] MH at pH 8.5 ([3]; CSV): 4 ug/mL; MIC S. maltophilia ([3]; Table S3): 4 mg/L (≈ 3.03 µM); MIC S. epidermis, […] MH at pH 8.5 ([4]; CSV): 1 ug/mL; MIC S. epidermis ([4]; Table S3): 1 mg/L (≈ 0.757 µM); MIC S. aureus Newman, […] MH at pH 8.5 ([5]; CSV): 4 ug/mL; MIC S. aureus Newman ([5]; Table S3): 4 mg/L (≈ 3.03 µM); CD %α with 5 mM DPC ([6]; DichroWeb, Contin-LL): 7%; CD %α with 20% TFE ([6]; DichroWeb, Contin-LL): 8%; CD %α with 5 mM DPC ([6]; Table S2): 7%; CD %α with 20% TFE ([6]; Table S2): 8%; MHC ([7]; CSV): >2000 µg/mL; MHC ([7]; Table S2, hRBC, 10 mM phosphate buffer, 150 mM NaCl, pH 7.4, 25 °C, 4 h): > 2000 µg/mL; MHC ([7]; hRBC, 10 mM phosphate buffer, 150 mM NaCl, pH 7.4, 25 °C, 4 h): >2000 µg/mL; Hemolysis ([7]; human red blood cells): none of them showed any measurable hemolysis; MIC P. aeruginosa ZEM9A, […] MH at pH 8.5 ([8]; CSV): 4 ug/mL; MIC P. aeruginosa ZEM9A ([8]; Table S3): 4 mg/L (≈ 3.03 µM); MIC P. aeruginosa PA14 4.18, […] MH at pH 8.5 ([9]; CSV, […] MH at pH 8.5): 12 ug/mL; MIC P. aeruginosa PA14 4.18 ([9]; Table S3, […] MH at pH 8.5): 8 to 16 mg/L; MIC PA14 4.18 (pmrB) [9, 20]: 8 to 16 mg/L; MIC E. coli W3110, […] MH at pH 7.4 ([10]; CSV, […] MH at pH 7.4): 8 ug/mL; MIC E. coli W3110, […] MH at pH 8.5 ([10]; CSV, […] MH at pH 8.5): 3 ug/mL; MIC E. coli W3110, full MH at pH 7.4 ([10]; CSV, full MH at pH 7.4): >32 ug/mL; MIC E. coli W3110, full MH at pH 8.5 ([10]; CSV, full MH at pH 8.5): >32 ug/mL; Antibacterial activity as a function of NaCl concentration ([10]; E. coli W3110, […] MH at pH 8.5, up to 300 mM NaCl): strongly reduced; MIC E. coli W3110 […] 7.4 ([10]; Table S2, […] MH, pH 7.4): 8 mg/L (≈ 6.05 µM); MIC E. coli W3110 […] 8.5 ([10]; Table S2, […] MH, pH 8.5): 2 to 4 mg/L; MIC E. coli W3110 Full MH 7.4 ([10]; Table S2, full MH, pH 7.4): > 32 mg/L; MIC E. coli W3110 Full MH 8.5 ([10]; Table S2, full MH, pH 8.5): > 32 mg/L; MIC P. aeruginosa PAO1, […] MH at pH 7.4 ([11]; CSV, […] MH at pH 7.4): 8 ug/mL; MIC P. aeruginosa PAO1, full MH at pH 7.4 ([11]; CSV, full MH at pH 7.4): >32 ug/mL; MIC P. aeruginosa PAO1, full MH at pH 8.5 ([11]; CSV, full MH at pH 8.5): >32 ug/mL; Antibacterial activity as a function of NaCl concentration ([11]; P. aeruginosa PAO1, […] MH at pH 8.5, up to 300 mM NaCl): strongly reduced; MIC P. aeruginosa PAO1 […] 7.4 ([11]; Table S2, […] MH, pH 7.4): 8 mg/L (≈ 6.05 µM); MIC P. aeruginosa PAO1 […] 8.5 ([11]; Table S2, […] MH, pH 8.5): 4 mg/L (≈ 3.03 µM); MIC P. aeruginosa PAO1 Full MH 7.4 ([11]; Table S2, full MH, pH 7.4): > 32 mg/L; MIC P. aeruginosa PAO1 Full MH 8.5 ([11]; Table S2, full MH, pH 8.5): > 32 mg/L; MIC A. baumannii ATCC19606, […] MH at pH 7.4 ([12]; CSV, […] MH at pH 7.4): 16 ug/mL; MIC A. baumannii ATCC19606, […] MH at pH 8.5 ([12]; CSV, […] MH at pH 8.5): 16 ug/mL; MIC A. baumannii ATCC19606, full MH at pH 7.4 ([12]; CSV, full MH at pH 7.4): >32 ug/mL; MIC A. baumannii ATCC19606, full MH at pH 8.5 ([12]; CSV, full MH at pH 8.5): >32 ug/mL; MIC A. baumannii ATCC19606 […] 7.4 ([12]; Table S2, […] MH, pH 7.4): 16 mg/L (≈ 12.1 µM); MIC A. baumannii ATCC19606 […] 8.5 ([12]; Table S2, […] MH, pH 8.5): 16 mg/L (≈ 12.1 µM); MIC A. baumannii ATCC19606 Full MH 7.4 ([12]; Table S2, full MH, pH 7.4): > 32 mg/L; MIC A. baumannii ATCC19606 Full MH 8.5 ([12]; Table S2, full MH, pH 8.5): > 32 mg/L; MIC P. aeruginosa PA14 2P4, […] MH at pH 8.5 ([13]; CSV, […] MH at pH 8.5): 12 ug/mL; MIC P. aeruginosa PA14 2P4 ([13]; Table S3, […] MH at pH 8.5): 8 to 16 mg/L; MIC PA14 2P4 (pmrB) [13, 20]: 8 to 16 mg/L; MIC P. aeruginosa ZEM-1A, […] MH at pH 8.5 ([14]; CSV, […] MH at pH 8.5): 3 ug/mL; MIC P. aeruginosa ZEM-1A ([14]; Table S3, […] MH at pH 8.5): 2 to 4 mg/L; MIC ZEM-1A [14, 20]: 2 to 4 mg/L; MIC P. aeruginosa PA14 4.13, […] MH at pH 8.5 ([15]; CSV, […] MH at pH 8.5): 6 ug/mL; MIC P. aeruginosa PA14 4.13 ([15]; Table S3, […] MH at pH 8.5): 4 to 8 mg/L; MIC PA14 4.13 (phoQ) [15, 20]: 4 to 8 mg/L; MIC K. pneumoniae OXA-48, […] MH at pH 8.5 ([16]; CSV): 32 ug/mL; MIC K. pneumoniae OXA-48 ([16]; Table S3): 32 mg/L (≈ 24.2 µM); MIC S. aureus COL (MRSA), […] MH at pH 7.4 ([17]; CSV, […] MH at pH 7.4): >32 ug/mL; MIC S. aureus COL (MRSA), […] MH at pH 8.5 ([17]; CSV, […] MH at pH 8.5): 6 ug/mL; MIC S. aureus COL (MRSA), full MH at pH 7.4 ([17]; CSV, full MH at pH 7.4): >32 ug/mL; MIC S. aureus COL (MRSA), full MH at pH 8.5 ([17]; CSV, full MH at pH 8.5): >32 ug/mL; MIC S. aureus COL (MRSA) […] 7.4 ([17]; Table S2, […] MH, pH 7.4): > 32 mg/L; MIC S. aureus COL (MRSA) […] 8.5 ([17]; Table S2, […] MH, pH 8.5): 4 to 8 mg/L; MIC S. aureus COL (MRSA) Full MH 7.4 ([17]; Table S2, full MH, pH 7.4): > 32 mg/L; MIC S. aureus COL (MRSA) Full MH 8.5 ([17]; Table S2, full MH, pH 8.5): > 32 mg/L; MIC S. aureus COL (MRSA) […] ([17]; diluted MH ([…] MH, pH 8.5) per Table 1 footnote b, 16–20 h at 37 °C): >32 mg/L; MIC K. pneumoniae NCTC418, […] MH at pH 7.4 ([18]; CSV, […] MH at pH 7.4): 32 ug/mL; MIC K. pneumoniae NCTC418, […] MH at pH 8.5 ([18]; CSV, […] MH at pH 8.5): 32 ug/mL; MIC K. pneumoniae NCTC418, full MH at pH 7.4 ([18]; CSV, full MH at pH 7.4): >32 ug/mL; MIC K. pneumoniae NCTC418, full MH at pH 8.5 ([18]; CSV, full MH at pH 8.5): >32 ug/mL; MIC K. pneumoniae NCTC418 […] 7.4 ([18]; Table S2, […] MH, pH 7.4): 32 mg/L (≈ 24.2 µM); MIC K. pneumoniae NCTC418 […] 8.5 ([18]; Table S2, […] MH, pH 8.5): 32 mg/L (≈ 24.2 µM); MIC K. pneumoniae NCTC418 Full MH 7.4 ([18]; Table S2, full MH, pH 7.4): > 32 mg/L; MIC K. pneumoniae NCTC418 Full MH 8.5 ([18]; Table S2, full MH, pH 8.5): > 32 mg/L; MIC E. cloacae, […] MH at pH 8.5 ([19]; CSV): 16 ug/mL; MIC E. cloacae ([19]; Table S3): 16 mg/L (≈ 12.1 µM)
